Laboratory results as given in PubChem BioAssay AID1645865 (Buhrlage Lab, Dana-Farber Cancer Institute and Novartis …, 2021).
Calls of active or inactive are those of the source.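 The calls were made as follows: active = maximal inhibition of the USP30 enzyme reaching 30% or more across the dose series; inactive = the rest.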

Target: Ubiquitin carboxyl-terminal hydrolase 30 (Homo sapiens) (UniProt Q70CQ3)
Assay: ubiquitin-specific protease 30 DUB inhibitors, concentration-effect, biochemical, validation of primary actives (AID 1645865)
Conditions: purified USP30, Ub-rhodamine cleavage, fluorescence, 2 h

Sequence of Ubiquitin carboxyl-terminal hydrolase 30 (Homo sapiens) (Q70CQ3 whole entry, looked up): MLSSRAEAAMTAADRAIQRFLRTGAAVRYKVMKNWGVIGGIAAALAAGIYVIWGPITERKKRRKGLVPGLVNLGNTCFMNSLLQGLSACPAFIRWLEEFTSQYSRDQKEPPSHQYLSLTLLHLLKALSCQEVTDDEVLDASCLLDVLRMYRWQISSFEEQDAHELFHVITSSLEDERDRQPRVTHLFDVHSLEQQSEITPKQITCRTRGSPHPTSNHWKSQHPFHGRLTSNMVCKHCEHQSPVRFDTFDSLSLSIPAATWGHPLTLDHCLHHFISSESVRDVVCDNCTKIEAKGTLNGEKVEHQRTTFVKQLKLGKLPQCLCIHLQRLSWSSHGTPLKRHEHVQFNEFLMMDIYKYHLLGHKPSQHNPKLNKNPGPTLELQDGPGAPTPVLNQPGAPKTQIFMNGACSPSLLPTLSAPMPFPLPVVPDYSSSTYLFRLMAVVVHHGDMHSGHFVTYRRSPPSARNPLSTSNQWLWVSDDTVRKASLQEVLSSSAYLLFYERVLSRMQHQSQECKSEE

Compound | IC50
N=C1C(c2nc3ccccc3s2)=C(O)CN1Cc1ccc(F)cc1 | > 50 µM (inactive)
COc1ccccc1CNC(=O)Nc1cccc2ccccc12 | 25.9 µM
COCCn1ccc2nc(C)c(C(=O)Nc3ccc4c(c3)OCCO4)cc2c1=O | 45.2 µM
Clc1cncc(Oc2nc(-c3cccnc3)nc3ccccc23)c1 | 2.09 µM
COc1ccc(-c2nc(C)c(C(=O)NCc3ccc(S(N)(=O)=O)cc3)s2)cc1 | > 50 µM (inactive)
O=C(CCn1c(=O)c2sccc2n(CC(=O)OCc2ccccc2)c1=O)NCc1ccc2c(c1)OCO2 | 22.9 µM
COc1ccc(NC(=O)CNC(=O)c2ccc3nc(-n4cccc4)sc3c2)cc1 | 1.86 µM
O=C(CCSc1ccc(Cl)cc1)c1cccs1 | 20.2 µM
O=C(c1cc(-c2ccncc2)n[nH]1)N1CCC(C(=O)N2CC=C(c3ccccc3)CC2)CC1 | 33.2 µM
COc1cccc2cccc(O)c12 | > 50 µM (inactive)
Cc1ccc2c(c1)c(=O)c(C(=O)c1ccccc1)cn2CC(=O)Nc1ccccc1 | 8.81 µM
COc1ccc(Cl)cc1-n1nnc(C(=O)N2CCc3ccccc3C2)c1C | > 50 µM (inactive)
O=C(Cn1c(=O)n(Cc2ccc(F)cc2)c(=O)c2sccc21)Nc1cccc(Cl)c1 | 4.47 µM
Cc1ccc(-c2noc(-c3nnc(SCC(=O)NC4CCCC4)n3C)n2)cc1 | 2.22 µM
COc1cccc(-n2c(CNCc3cccnc3)nc3ccc([N+](=O)[O-])cc3c2=O)c1 | 25.2 µM
O=C(NCc1cccnc1)c1cnn2c(C(F)(F)F)cc(-c3ccccc3)nc12 | > 50 µM (inactive)
COc1cccc(N2CCN(C(=O)C3CCN(c4nc(NC(C)=O)ns4)CC3)CC2)c1 | > 50 µM (inactive)
O=C(Nc1ccccc1)c1cn2c3c(cccc3c1=O)CC2 | > 50 µM (inactive)
COc1c2nc3ccccc3oc-2cc(=O)c1OC | > 50 µM (inactive)
Cc1cc(C(=O)COC(=O)c2ccc[nH]c2=O)c(C)n1-c1ccc2c(c1)OCO2 | > 50 µM (inactive)
CN1C(=O)[C@]23CC4=CC=C[C@H](O)[C@H]4N2C(=O)[C@@]1(CO)SS3 | 3.78 µM
COc1cc2c(oc(=O)c3cc(C)cc(OC)c32)c2c([C@@H]3OC(C)[C@@H](O)[C@@](C)(O)C3O)ccc(O)c12 (stereo partly specified) | > 50 µM (inactive)
CCOc1ccccc1C(=O)Nc1ccc2c(c1)Sc1ncccc1C(=O)N2C | > 50 µM (inactive)
COc1ccc(-c2nc(Cn3nnc(C(=O)Nc4ccc(C)c(C)c4)c3N)c(C)o2)cc1 | 2.53 µM
Cc1cc(C(=O)N2CC(C(=O)Nc3cc(C(F)(F)F)ccc3Cl)C2)no1 | 29.3 µM
Cc1ccc(Nc2nc(C(=O)NCc3ccc4c(c3)OCO4)cc3occc23)cc1Cl | > 50 µM (inactive)

Compound | IC50
O=[N+]([O-])c1ccc2c(c1)nc1n2CCN(Cc2ccco2)C1 | > 50 µM (inactive)
COc1cccc(-c2cc(C(=O)N3CCN(c4ccc(N5CCOCC5)nn4)CC3)[nH]n2)c1 | 38.5 µM
Nc1ccc(F)c(NS(=O)(=O)c2ccccc2)c1 | > 50 µM (inactive)
O=C(Cn1c(CSc2ccccc2)nc2ccccc21)Nc1ccccc1F | > 50 µM (inactive)
Cc1ccnc(NC(=O)c2ccn(COc3ccc(Cl)cc3)n2)c1 | 22.8 µM
O=C(Cc1c[nH]c2ccccc12)Nc1nc2ccccc2s1 | > 50 µM (inactive)
O=C(Cn1cc(C(=O)C(F)(F)F)c2ccccc21)N1CCc2ccccc21 | 2.4 µM
CN(C)C1CCN(C(=O)c2cc(-c3ccn(-c4ccccc4)n3)n3ccccc23)CC1 | > 50 µM (inactive)
O=C(Nc1ccc2c(c1)OCCO2)c1ccc(N2CCCC2=O)cc1 | 42.4 µM
COc1ccc(C(=O)Nc2sc3c(c2C(=O)NCc2cccnc2)CCCC3)cc1 | 4.43 µM
Cc1c(-c2nnc(-c3ccccn3)o2)nnn1-c1cccc(Cl)c1 | 44.4 µM
CCOc1ccc(NC(=O)Cn2c(=O)n(CCC(=O)NCc3ccccc3OC)c(=O)c3ccccc32)cc1 | 3.39 µM
COc1cc(NC(=O)Cc2ccccc2)ccc1NC(=O)c1cc2ccccc2o1 | 2.32 µM
CCc1cccc(CC)c1NC(=O)COC(=O)c1cc2cccc(OC)c2oc1=O | 39.5 µM
COc1ccc(-c2cc(C(=O)NC3CCCCCC3)[nH]n2)cc1S(=O)(=O)N(C)C | 22.9 µM
Cc1noc(-c2cccc(=O)n2CC(=O)Nc2ccc(C)c(C)c2)n1 | 25 µM
O=C(NCc1ccc2c(c1)OCO2)c1cc(-c2cc(Cl)ccc2O)n[nH]1 | 2.82 µM
CC(c1ccccc1)c1nc(-c2ccc(=O)[nH]c2)no1 (stereo unspecified) | > 50 µM (inactive)
COc1cccc(NC(=O)c2ccc3noc(-c4ccc(Cl)cc4)c3c2)c1 | 32.6 µM
NS(=O)(=O)c1cccc(NC(=O)CN2CCCc3ccccc32)c1 | > 50 µM (inactive)
COc1cccc(-c2cc(=O)[nH]c(Nc3nc(C)c4ccccc4n3)n2)c1 | 35.4 µM
COc1ccc2cc3c(nc2c1)OC(=O)N(CCc1cccc(F)c1)C3 | 0.0686 µM
COc1ccc(-c2cc(-c3ccc(F)cc3)[nH]c(=O)c2C#N)cc1 | 22.1 µM
CCc1ccc(NC(=O)COc2cccc(-n3cnnn3)c2)cc1 | 26.6 µM
Cc1ccc2nc(CNc3ccc(F)cc3C)cc(=O)n2c1 | > 50 µM (inactive)
COc1cccc(CNC(=O)C2=Cc3cccc(OC)c3OC2)c1 | > 50 µM (inactive)

Compound | IC50
O=C(COc1ccc(Cl)cc1)NCc1nnc(SCC(=O)NCc2ccc3c(c2)OCO3)o1 | 25.8 µM
COC(=O)CC1CC23OC2(C(=O)c2c(O)cccc2C3=O)C(C)O1 (stereo unspecified) | > 50 µM (inactive)
Cc1cc(NCC2CC2)n2nc(Nc3cc(Cl)ccc3C)nc2n1 | 23.6 µM
COc1cccc(N2C(=O)N(CC(=O)NCc3ccc(Cl)cc3)c3ccccc3S2(=O)=O)c1 | 17 µM
O=C(Nc1cc(F)c2nc(N3CCOCC3)ccc2c1)c1ccc(Br)o1 | > 50 µM (inactive)
O=c1[nH]c(C2CCN(S(=O)(=O)c3ccc(S(=O)(=O)NC4CCCCC4)cc3)CC2)nc2c1nnn2Cc1c(F)cccc1Cl | 22.8 µM
O=c1c2ccccc2ncn1C1CCN(S(=O)(=O)c2ccccc2F)CC1 | 30.8 µM
Cc1nc(C(=O)NC2(O)C(=O)c3ccccc3C2=O)cs1 | 23.1 µM
COc1cccc(-c2nc(C(N)=O)c3[nH]c(=O)n(-c4cccc(Cl)c4)c3n2)c1OC | > 50 µM (inactive)
COc1ccc(C(=O)C2CC(=O)Nc3c2c(C)nn3-c2ccc(Br)cc2)cc1 (stereo unspecified) | 3.36 µM
COc1ccc(C)cc1NC(=O)CSc1nc(C)nc2c1oc1ccccc12 | 17.9 µM
Cc1nc(-c2ccc3c(c2)nnn3CCN2CCOCC2)no1 | > 50 µM (inactive)
CCOc1ccccc1NC(=O)Cn1c(-c2ccc3c(c2)OCO3)cn(-c2ccc(OC)cc2)c1=O | > 50 µM (inactive)
CC1(C)CC2CC(C)(CN2Cc2c(O)ccc3ccccc23)C1 (stereo unspecified) | > 50 µM (inactive)
COc1cccc(NC(=O)C2Cn3ccnc3C3(CCN(C(C)=O)CC3)O2)c1 (stereo unspecified) | > 50 µM (inactive)
O=C(Nc1nnc2n1CCCS2)c1cccc(Cl)c1 | > 50 µM (inactive)
CC(C)(C)C(=O)Nc1ccc(C(=O)Nc2cccc(-c3nnc(-c4ccccc4)o3)c2)cc1 | 2.28 µM
COc1ccc(-c2cc(-c3nnc(CSc4nc5ccccc5n4C)o3)c3ccccc3n2)cc1OC | > 50 µM (inactive)
Cc1ccc(-c2ncc(C(=O)NCc3cccc(C)c3)c(-c3ccncc3)n2)cc1 | > 50 µM (inactive)
Cc1cccc(NC(=O)CN2C(=O)COc3cc(S(=O)(=O)N4CCCC4)ccc32)c1C | 21.4 µM
CC(C)c1nc2sc3c(N(CCO)CCO)ncnc3c2c2c1COC(C)(C)C2 | > 50 µM (inactive)
CCOC(=O)[C@@H]1[C@@H](c2ccccc2)CN2CCN(C(=O)c3cnccn3)C[C@H]12 | > 50 µM (inactive)
CCc1ccccc1NC(=O)c1cc(-c2ccccn2)n[nH]1 | 24 µM
CCOc1ccc(NC(=O)Cn2c(=O)n(CCC(=O)NCc3ccco3)c(=O)c3ccccc32)cc1 | 4.08 µM
Cc1nc(Nc2ncc(C)s2)cc(C2CN(C(=O)Cc3ccccc3)CCO2)n1 (stereo unspecified) | 33.7 µM
Nc1nc(OCc2ccccc2)c2[nH]c(/C=C/c3cccs3)nc2n1 | 35.6 µM

Compound | IC50
CCCCCn1c(Sc2ccc(C)cc2)nc2c1c(=O)[nH]c(=O)n2C | 11.3 µM
COCCNC(=O)c1ccnn1-c1ccc2ccc(-c3cccnc3)cn12 | > 50 µM (inactive)
CC(=O)c1sc(NC(=O)/C=C/c2ccccc2)nc1-c1ccccc1 | 18 µM
O=C(CSc1nc2ccncc2[nH]1)Nc1ccc(Br)cc1F | 27.4 µM
CC(C)C(=O)Nc1ccc(N2CCN(Cc3ccc(F)cc3)C2=O)nc1 | 37.6 µM
COc1cc(-c2nc(C(N)=O)c3[nH]c(=O)n(-c4ccc(C)cc4)c3n2)cc(OC)c1OC | 2.13 µM
COc1ccc(NC(=O)Cn2cc(C(=O)c3ccc(F)cc3)c(=O)c3cc(C)ccc32)cc1 | 20.7 µM
O=C(COC(=O)c1ccc(Cl)cc1)Nc1ccc2[nH]c(=O)[nH]c2c1 | 3.98 µM
COC(=O)c1ccc(NC(=O)CSc2nnc(-c3ccc(O)cc3)n2Cc2ccco2)cc1 | 4.38 µM
COc1cc(NC(=O)c2ccc3c(c2)OCO3)ccc1-c1cc2ccccc2oc1=O | 0.363 µM
O=C(CCc1c[nH]c2ccccc12)Nc1ccc(N2CCOCC2)cc1 | 25.1 µM
NC(=O)C1(N2CCCCC2)CCN(C(=O)c2[nH]nc3c2CCc2ccccc2-3)CC1 | > 50 µM (inactive)
O=C(Nc1cccc2ccccc12)N1CCC(c2nc3c(nnn3Cc3ccc(F)cc3)c(=O)[nH]2)CC1 | 33.9 µM
O=C(COc1ccc2c(c1)CCC2)Nc1ccc2c(c1)CCC2 | 26.3 µM
Nc1c(C(=O)Nc2ccc3c(c2)OCO3)sc2nc(-c3cccnc3)ccc12 | 0.545 µM
Cc1ccc(/C=C/C(=O)Nc2ccc3c(c2)OCCO3)cc1 | > 50 µM (inactive)
Cn1cc(-c2cnc(-c3cccc(F)c3)nc2)cc1C(=O)NCc1cccnc1 | 30.7 µM
Oc1ccc(-c2nc3cnccn3c2NCCc2ccccc2)c(O)c1 | > 50 µM (inactive)
Cc1cc(-n2c(C)cc(-c3csc(N)n3)c2C)no1 | > 50 µM (inactive)
Cc1cccc(NC(=O)CSc2ccc(-n3cnc(-c4ccccc4)c3)nn2)c1 | 1.95 µM
COc1ccc(NC(=O)C2CC(=O)Nc3c(-c4ccc(Cl)cc4)cnn32)c(OC)c1 (stereo unspecified) | 8.18 µM
Cc1ccc2c(=O)c(C(=O)Nc3ccccc3)cn(CC(=O)NC3CCCCC3)c2n1 | < 0.05 µM
O=c1cc(CNc2ccc(Br)cc2)nc2nc(-c3ccccc3)[nH]n12 | > 50 µM (inactive)
